These results are taken from ChEMBL document CHEMBL6103565, “Current strategies in design and synthesis of antifungals hybrid and chimeric diazine derivatives” (Bioorg Med Chem, 2025).

The term MIC denotes the least concentration at which growth counts as inhibited. By EC50 is commonly meant the concentration at which the effect is half-maximal.

Values after ≈ are worked out from the molar mass of the structure shown.

Test [1] has as its system Aspergillus niger. Put plainly: Antifungal activity against Aspergillus niger ATCC 16404 assessed as inhibition of mycelial growth relative to control. Format: functional.
Test [2] deals with Candida albicans. Put plainly: Antifungal activity against Candida albicans ATCC 10231 assessed as inhibition of mycelial growth relative to control. Format: functional.
The subject of test [3] is Candida albicans. Put plainly: Antifungal activity against Candida albicans assessed as fungal growth inhibition. The test is classed as functional.
Test [4] deals with Candida albicans. Nature of the test: Antifungal activity against Candida albicans ATCC 10231 assessed as zone of inhibition incubated for 24 hrs by disc diffusion method. The test is classed as functional. For orientation: A growth-free zone around the sample is the usual read-out of agar diffusion tests.
The test system of test [5] is Candida albicans. Put plainly: Antifungal activity against Candida albicans NRRL-Y477 assessed as zone of inhibition by disc diffusion method. The test is classed as functional.
In a further test the test system is Aspergillus flavus. Put plainly: Antifungal activity against Aspergillus flavus ATCC 20046 assessed as reduction in fungal growth incubated ofr 48 hrs by CLSI micro-dilution method. The test is classed as functional.
For another test, the system named is Penicillium frequentans. Put plainly: Antifungal activity against Penicillium frequentans ATCC 10110 assessed as reduction in fungal growth incubated ofr 48 hrs by CLSI micro-dilution method. The test is classed as functional. A general note: Broth dilution looks for growth in wells or tubes with falling amounts of substance.
A further test relates to Alternaria alternata. Nature of the test: Antifungal activity against Alternaria alternata ATCC 8741 assessed as reduction in fungal growth incubated ofr 48 hrs by CLSI micro-dilution method. The test is classed as functional.
For another test, the system named is Penicillium chrysogenum. Put plainly: Antifungal activity against Penicillium chrysogenum ATCC 20044 assessed as reduction in fungal growth incubated ofr 48 hrs by CLSI micro-dilution method. Format: functional.
A further test concerns Fusarium solani. Put plainly: Antifungal activity against Fusarium solani ATCC 20327 assessed as reduction in fungal growth incubated ofr 48 hrs by CLSI micro-dilution method. Format: functional.
Test [6] relates to Candida albicans. Put plainly: Antifungal activity against Candida albicans assessed as diameter of inhibition zone. The test is classed as functional.
A further test concerns Rhizopus microsporus. Put plainly: Antifungal activity against Rhizopus microsporus assessed as diameter of inhibition zone. Format: functional.
In test [7] the test system is Candida albicans. Put plainly: Antifungal activity against Candida albicans RCMB 005036 assessed as diameter of zone inhibition. Format: functional.
The test system of test [8] is Aspergillus fumigatus. Put plainly: Antifungal activity against Aspergillus fumigatus RCMB 002568 assessed as diameter of zone inhibition. Format: functional.
Test [9] concerns Aspergillus niger. Put plainly: Antifungal activity against Aspergillus niger MTCC 282 by disc diffusion method. The test is classed as functional, organism-based.
The test system of another test is Aspergillus clavatus. Nature of the test: Antifungal activity against Aspergillus […] MTCC 1323 assessed as reduction in microbial growth after 48 hrs by broth dilution method. The test is classed as functional.
The test system of test [10] is Aspergillus niger. Nature of the test: Antifungal activity against Aspergillus niger MTCC 282 assessed as reduction in microbial growth after 48 hrs by broth dilution method. The test is classed as functional.
In test [11] the test system is Candida albicans. Nature of the test: Antifungal activity against Candida albicans MTCC 227 assessed as reduction in microbial growth after 48 hrs by broth dilution method. The test is classed as functional.
The test system of test [12] is Candida albicans. Put plainly: Antifungal activity against Candida albicans MTCC 227 by disc diffusion method. Format: functional, organism-based.
Test [13] has as its system Aspergillus fumigatus. Nature of the test: Antifungal activity against Aspergillus fumigatus assessed as reduction in fungal growth incubated for 72 hrs by agar well diffusion method. The test is classed as functional.
Test [14] has as its system Candida albicans. Put plainly: Antifungal activity against Candida albicans assessed as reduction in fungal growth incubated for 72 hrs by agar well diffusion method. Format: functional.

`C[C@@H]1[C@H](O)[C@@H](C)/C=C/C=C/CC/C=C/C=C/C=C/C=C/[C@H](O[C@@H]2O[C@H](C)[C@@H](O)[C@H](N)[C@@H]2O)C[C@@H]2O[C@](O)(C[C@@H](O)[C@H](O)CC[C@@H](O)C[C@@H](O)C[C@@H](O)CC(=O)O[C@H]1C)C[C@H](O)[C@H]2C(=O)O`: the “inhibition (INH)” value with Aspergillus niger [1] is given as 66%; in the test with Candida albicans [2], 63%. The MIC in the test with Candida albicans [3] came to 1 µg/mL (≈ 1.08 µM). Further, the “inhibition zone (IZ)” value in the test with Candida albicans [4] came to 26 mm; in the test with Candida albicans [5] it was 23 mm.

For `CCC(C)CC(C)CCCCCCCCC(=O)N[C@H]1C[C@@H](O)[C@@H](NCCN)NC(=O)[C@@H]2[C@@H](O)CCN2C(=O)[C@H]([C@H](O)CCN)NC(=O)[C@H]([C@H](O)[C@@H](O)c2ccc(O)cc2)NC(=O)[C@@H]2C[C@@H](O)CN2C(=O)[C@H]([C@@H](C)O)NC1=O` (some centres not stated), the MIC in the test on Aspergillus flavus, in the test with Penicillium frequentans, with Alternaria alternata, in the test with Penicillium chrysogenum and with Fusarium solani was 0.25 µg/mL (≈ 0.229 µM) throughout.

In the case of `COC(=O)COc1cccc(OCC(=O)OC)c1C(=O)C[n+]1cc2ccccc2cn1.[Br-]`, the MIC in the test with Candida albicans [3] came to 1.25 µg/mL.

Turning to `O=C1CCC(=O)N(CC(=O)n2c3ccccc3c3ccccc32)N1`, the “inhibition zone (IZ)” value in the test on Candida albicans [6] is on record as 18 mm; in the test with Rhizopus microsporus, 14 mm.

Turning to `COc1ccc(NC(=O)c2nn(-c3ccccc3)c(=N)c(C#N)c2C)cc1`, the “inhibition zone (IZ)” value in the test with Candida albicans [7] worked out at 26 mm; with Aspergillus fumigatus [8], 20 mm.

For the molecule `CC(=O)N1N=C(C2=C(C)NC(=O)NC2c2ccc(F)cc2)OC1c1ccc([N+](=O)[O-])cc1` (configuration not stated), the EC50 in the test with Aspergillus niger [9] and in the test with Candida albicans [12] was 0.14 µg/mL (≈ 0.319 µM) each time. In addition, the MIC in the test with Aspergillus clavatus turned out to be 50 µg/mL; with Aspergillus niger [10], 50 µg/mL; in the test on Candida albicans [11], 100 µg/mL.

On to `Cc1ccc(-c2ccc(=O)n(CC3=C(Cn4nc(-c5ccc(C)cc5)ccc4=O)[C@]4(C)CCCC(C)(C)C4=CC3=O)n2)cc1`, for which the MIC in the test on Aspergillus flavus, in the test on Penicillium frequentans, in the test with Alternaria alternata, with Penicillium chrysogenum and in the test with Fusarium solani was 5 µg/mL (≈ 8.52 µM) each time.

In the case of `Cc1nnc2c(C#N)c(N)n(-c3ccc(N)cc3)nc1-2`, the MIC with Aspergillus fumigatus [13] amounted to 0.9 µg/mL (≈ 3.39 µM); in the test with Candida albicans [14] it was 3.9 µg/mL (≈ 14.7 µM).
